According to PubChem BioAssay AID732 (Emory University Molecular Libraries Screening Center, 2007):
Where “and” joins values, the source holds several entries; their conditions need not be identical. Equal values may be shown once. Calls of active or inactive are those of the source. No rule for the calls is given here.

Test system: in vivo angiogenesis, blood vessel count
Assay: angiogenesis inhibition in living animals, in vivo study, HTS (AID 732);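 also: zebrafish embryos dosed at one day post fertilization; 0% = reference inhibitor and 100% = plate mean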
Conditions: active compounds read low;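 tested at 30 µM in the well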

Compound	vessel count % control
CN1CCc2cc(Cl)c(O)cc2[C@@H](c2ccccc2)C1	97.5% (inactive)
CC(=O)[C@]1(O)Cc2c(O)c3c(c(O)c2[C@@H](O[C@H]2C[C@H](N)[C@H](O)[C@H](C)O2)C1)C(=O)c1ccccc1C3=O	0% (inactive)
O=c1cc(N2CCOCC2)oc2c(-c3ccccc3)cccc12	120% (inactive)
CC1=C(C)C(=O)C(CCCCC#CCCCC#CCO)=C(C)C1=O	88.8% (inactive)
CC1OC1P(=O)(O)O (configuration not stated)	102% (inactive)
NCCCS(=O)(=O)O	144% (inactive)
O=C(O)[C@@H]1C[C@H](C(=O)O)N1	59.7% (inactive)
CC(CN(C)C)CN1c2ccccc2CCc2ccccc21 (configuration not stated)	97.1% (inactive)
CN(C)C(=O)Oc1ccc[n+](C)c1	110% (inactive)
FC(F)(F)c1cc(CO[C@H]2CCCN[C@H]2c2ccccc2)cc(C(F)(F)F)c1	91.5% (inactive)
N=C(N)SCCc1cnc[nH]1	150% (inactive)
Cc1ccc(C(=O)Nc2ccc(S(=O)(=O)O)c3cc(S(=O)(=O)O)cc(S(=O)(=O)O)c23)cc1NC(=O)c1cccc(NC(=O)Nc2cccc(C(=O)Nc3cc(C(=O)Nc4ccc(S(=O)(=O)O)c5cc(S(=O)(=O)O)cc(S(=O)(=O)O)c45)ccc3C)c2)c1	119% (inactive)
CCCCCCCCCCCCC/C=C/C(O)C(N)CO (configuration not stated)	112% (inactive)
CSc1ccc2c(c1)N(CCC1CCCCN1C)c1ccccc1S2 (configuration not stated)	102% (inactive)
O=c1[nH]cc(F)c(=O)[nH]1	111% (inactive)
CCCN1CCC[C@@H]2Cc3[nH]ncc3C[C@H]21	129% (inactive) and 112% (inactive)
Nc1ncnc2c1nc(Br)n2C1OC2COP(=O)(O)O[C@@H]2C1O (some centres not stated)	101% (inactive)
COc1cccc(OC)c1OCCNCC1CSc2ccccc2O1 (configuration not stated)	71.1% (inactive)
Cc1nc(-c2ccc(-c3ccc(C(=O)N4CCc5cc6c(cc54)C4(CCN(C)CC4)CO6)cc3)c(C)c2)no1	108% (inactive)

Compound	vessel count % control
CC[C@H](C)C(=O)O[C@H]1CCC=C2C=C[C@H](C)[C@H](CC[C@@H]3C[C@@H](O)CC(=O)O3)[C@H]21	88.5% (inactive)
Oc1ccc2c3c1O[C@H]1c4[nH]c5ccccc5c4C[C@@]4(O)C(C2)N(CC2CC2)CCC314 (some centres not stated)	115% (inactive)
O=c1[nH]cnc2[nH]ncc12	120% (inactive)
O=C(NCCNCC(O)COc1ccc(O)cc1)N1CCOCC1 (configuration not stated)	89.9% (inactive)
c1ccc(CN2CCC3(CCCc4ccccc43)CC2)cc1	128% (inactive)
CC(C[N+](C)(C)C)OC(N)=O (configuration not stated)	91.7% (inactive)
O=c1[nH]c(=O)c2nc3ccccc3nc2[nH]1	129% (inactive)
CC1=C(C(=O)O)N2C(=O)[C@@H](NC(=O)C(N)C3=CCC=CC3)[C@H]2SC1 (some centres not stated)	98.7% (inactive)
O=C(c1ccc(OCCN2CCCCC2)cc1)c1c(-c2ccc(O)cc2)sc2cc(O)ccc12	87.4% (inactive)
O=Nc1c(-c2c(O)[nH]c3ccc([N+](=O)[O-])cc23)[nH]c2ccc(Br)cc12	79.3% (inactive)
Oc1ccc(C2CNCCc3c2cc(O)c(O)c3Cl)cc1 (configuration not stated)	117% (inactive)
O=c1[nH]c2cc(Cl)c(Cl)cc2[nH]c1=O	109% (inactive)
c1ccc2c(N3CCNCC3)cccc2c1	97.1% (inactive)
CN1C(=O)CCS(=O)(=O)C1c1ccc(Cl)cc1 (configuration not stated)	97% (inactive)
CCCCNc1cc(C(=O)O)cc(S(N)(=O)=O)c1Oc1ccccc1	59.2% (inactive)
O=C(O)C1=CC(=C(c2ccc(O)c(C(=O)O)c2)c2ccc(O)c(C(=O)O)c2)C=CC1=O	109% (inactive)
COC1(C2=NCCN2)COc2ccccc2O1 (configuration not stated)	121% (inactive)
O=C(O)CN(CCOCCOCCN(CC(=O)O)CC(=O)O)CC(=O)O	103% (inactive)
